Source: patent publication US9597407B2, “Targeted antimicrobial moieties” (C3 Jian, Inc., priority 2009, dated 2017)
Entries after “also recorded” stand apart in the source; their conditions may differ.

Legend:
microorganisms [1] = assay: Morphology, biofilm and growth disruption by peptides (Table 5); assay type: cell-based; design: key: A: Peptide aggregates; B: Less hyphal formation; Clumps; Diffuse clumps and small polyps; F: Diffuse growth; H: Thin; I: Growth inhibition; Microcolony formation; Rippled; Small polyps; Thick; W: Halo formation on top, microlonies on bottom
From the text: In certain embodiments peptides that induce alterations in phenotype or other biological activities can also be used as antimicrobial effector moieties.

microorganisms [2] = assay: Peptide activities: binding, antimicrobial, growth or phenotype altering (Table 8)
From the text: In certain embodiments, peptides described herein can have multiple activities. Thus for example, a peptide can have both binding/targeting activity and antimicrobial activity. Such peptides can be used, e.g., in a chimeric construct, for any or all of these properties. Thus, for example, a peptide designated “B” in Table 8 can be used as a targeting peptide. If it is also designated G or M it can also be used for antimicrobial activity.

bacteria = assay: Binding of targeting peptides to microorganisms (Table 3); conditions: peptide binding in aqueous buffers that varied depending on peptide solubility; preferably 1x PBS

| Substance | Organism, effect (morphology, biofilm and growth disruption) (microorganisms [1]; MRSA) | Organism, effect (morphology, biofilm and growth disruption) (microorganisms [1]; S. pneumoniae) | Activities (microorganisms [2]) | Target(s) (microorganism bound by the targeting peptide) (bacteria) | Organism, effect (morphology, biofilm and growth disruption) (microorganisms [1]; S. mutans) | Organism, effect (morphology, biofilm and growth disruption) (microorganisms [1]; F. nucleatum) | also measured |
| --- | --- | --- | --- | --- | --- | --- | --- |
| PF-635 (chain 1 MNAHGHSLIFQKMIVHAFAFFSKQKNYLYF; chain 2 MNAHGHSLIFQKMIVHAFAFFSKQKNYLYF; Peptide with targeting and/or antimicrobial activity) | MRSA (D) | S. pneumoniae (D) | G B | S. epidermidis and P. aeruginosa and C. albicans and MRSA and S. pneumoniae and E. faecalis and C. jeikeium | – | – | Organism, effect (morphology, biofilm and growth disruption) (microorganisms [1]; C. albicans): C. albicans (B); Organism, effect (morphology, biofilm and growth disruption) (microorganisms [1]; C. jeikeium): C. jeikeium (D); Organism, effect (morphology, biofilm and growth disruption) (microorganisms [1]; E. faecalis): E. faecalis (D); Organism, effect (morphology, biofilm and growth disruption) (microorganisms [1]; S. epidermidis): S. epidermidis (M) |
| PF-737 (chain 1 KSSGSSASASSTAGGSSSK; chain 2 KSSGSSASASSTAGGSSSK; Peptide with targeting and/or antimicrobial activity) | – | S. pneumoniae (D) | G B | S. epidermidis; also recorded: S. pneumoniae | – | – | – |
| PF-738 (chain 1 KSGATSAASGAKSGASS; chain 2 KSGATSAASGAKSGASS; Peptide with targeting and/or antimicrobial activity) | MRSA (M) | – | G B | S. epidermidis; also recorded: C. albicans; also recorded: C. jeikeium | – | – | – |
| PF-741 (chain 1 AKREDTVAAQIGANILNLIQ; chain 2 AKREDTVAAQIGANILNLIQ; Peptide with targeting and/or antimicrobial activity) | MRSA (C) | S. pneumoniae (D) | G B | S. epidermidis and M. luteus and P. mirabilis and P. aeruginosa and C. albicans and MRSA and S. pneumoniae and E. faecalis | S. mutans (D) | – | Organism, effect (morphology, biofilm and growth disruption) (microorganisms [1]; E. coli): E. coli (C); Organism, effect (morphology, biofilm and growth disruption) (microorganisms [1]; M. luteus): M. luteus (C); Organism, effect (morphology, biofilm and growth disruption) (microorganisms [1]; P. mirabilis): P. mirabilis (C); Organism, effect (morphology, biofilm and growth disruption) (microorganisms [1]; S. epidermidis): S. epidermidis (C) |
| PF-744 (chain 1 LGVGTFVGKVLIKNQQKQKSKKKAQ; chain 2 LGVGTFVGKVLIKNQQKQKSKKKAQ; Peptide with targeting and/or antimicrobial activity) | – | S. pneumoniae (H) | G B | S. epidermidis and M. luteus and E. coli and MRSA and S. pneumoniae and E. faecalis and C. jeikeium | – | – | – |
| PF-746 (chain 1 FLGNSQYFTRK; chain 2 FLGNSQYFTRK; Peptide with targeting and/or antimicrobial activity) | MRSA (C) | S. pneumoniae (C) | G B | S. epidermidis; also recorded: M. luteus; also recorded: E. coli; also recorded: C. albicans; also recorded: S. pneumoniae; also recorded: E. faecalis; also recorded: C. jeikeium | S. mutans (D) | – | Organism, effect (morphology, biofilm and growth disruption) (microorganisms [1]; E. coli): E. coli (C); Organism, effect (morphology, biofilm and growth disruption) (microorganisms [1]; M. luteus): M. luteus (C); Organism, effect (morphology, biofilm and growth disruption) (microorganisms [1]; P. aeruginosa): P. aeruginosa (A); Organism, effect (morphology, biofilm and growth disruption) (microorganisms [1]; S. epidermidis): S. epidermidis (C) |
| PF-756 (chain 1 DALLRLA; chain 2 DALLRLA; Peptide with targeting and/or antimicrobial activity) | – | S. pneumoniae (A) | G B | S. epidermidis and M. luteus and C. albicans and MRSA and C. jeikeium | – | – | – |
| PF-757 (chain 1 PQAISSVQQNA; chain 2 PQAISSVQQNA; Peptide with targeting and/or antimicrobial activity) | – | S. pneumoniae (H) | G B | M. luteus and C. albicans and MRSA | – | – | – |
| PF-760 (chain 1 DHITLDDYEIHDGFNFELYYG; chain 2 DHITLDDYEIHDGFNFELYYG; Peptide with targeting and/or antimicrobial activity) | MRSA (M) | S. pneumoniae (C) | G B | S. epidermidis; also recorded: M. luteus | – | – | Organism, effect (morphology, biofilm and growth disruption) (microorganisms [1]; S. epidermidis): S. epidermidis (M) |
| PF-762 (chain 1 PAPAPSAPAPAPEQPEQPA; chain 2 PAPAPSAPAPAPEQPEQPA; Peptide with targeting and/or antimicrobial activity) | – | S. pneumoniae (H) | G B | M. luteus; also recorded: C. albicans | – | – | – |
| PF-764 (chain 1 GYFEPGKRD; chain 2 GYFEPGKRD; Peptide with targeting and/or antimicrobial activity) | MRSA (D) | S. pneumoniae (H) | G B | S. epidermidis and M. luteus and C. albicans and MRSA and S. pneumoniae and E. faecalis and C. jeikeium | – | – | – |
| PF-C058 (FETGFGDGYYMSLWGLNEKDEVCKVVIPFINPELID; Peptide with targeting and/or antimicrobial activity) | – | – | G B | A. naeslundii; also recorded: F. nucleatum; also recorded: P. gingivalis; also recorded: S. mutans | S. mutans (F) | – | – |
| PF-C061 (TLNYKKMFFSVIFLLGLNYLICNSPLFFKQIEF; Peptide with targeting and/or antimicrobial activity) | – | – | G B | A. naeslundii; also recorded: F. nucleatum; also recorded: P. gingivalis; also recorded: S. mutans; also recorded: T. denticola | S. mutans (F) | F. nucleatum (T) | – |
| PF-C065 (DEERYSDSYFLKEKVFYLILALFLILFHQKYLYFLEIITI; Peptide with targeting and/or antimicrobial activity) | – | – | G B | A. naeslundii; also recorded: F. nucleatum; also recorded: P. gingivalis; also recorded: S. mutans | – | F. nucleatum (T) | – |
| PF-C072 (KKMFSLIRKVNWIFFILFIVLDLTNVFPLIRTILFAILSRQ; Peptide with targeting and/or antimicrobial activity) | – | – | G B | A. naeslundii; also recorded: F. nucleatum; also recorded: P. gingivalis; also recorded: S. mutans; also recorded: T. denticola | S. mutans (F) | F. nucleatum (T) | Organism, effect (morphology, biofilm and growth disruption) (microorganisms [1]; P. gingivalis): P. gingivalis (T) |
| PF-C095 (LLALNMNEDTYYFELFFIFDNQNKKWLIFDLKERG; Peptide with targeting and/or antimicrobial activity) | – | – | G B | A. naeslundii; also recorded: F. nucleatum; also recorded: P. gingivalis; also recorded: S. mutans | – | F. nucleatum (T) | – |
| PF-C098 (PETKGKVSAFVFGIVVANVIAVVYILYMLREIGIIQ; Peptide with targeting and/or antimicrobial activity) | – | – | G B | A. naeslundii; also recorded: F. nucleatum; also recorded: P. gingivalis; also recorded: S. mutans; also recorded: T. denticola | S. mutans (F) | F. nucleatum (T) | – |
| PF-C135 (KNTHAYLRVLRLSSLILSYQASVYPLFAYLCQQKDY; Peptide with targeting and/or antimicrobial activity) | – | – | G B | A. naeslundii; also recorded: F. nucleatum; also recorded: P. gingivalis; also recorded: S. mutans | S. mutans (F) | F. nucleatum (C) | – |
